This is an account of results in BindingDB's records for doi:10.1073/pnas.2111172118 (Baylor College of Medicine, 2021).

The experiment addresses Replicase polyprotein 1ab (Severe acute respiratory syndrome coronavirus 2, UniProt P0DTD1). Put plainly: Enzyme Inhibition Assay and Ki Values Determination.

Source text: Initial hydrolysis rates of fluorescent peptide were plotted as a function of compound concentrations and Ki values were obtained by fitting the data into the Morrison equation (42) with SE from triplicates.

In general, Ki refers to a dissociation constant, usually derived from enzyme kinetics or from competition with a known ligand. A higher Ki goes with lower affinity. `COc1cc(-c2cccc3[nH]ncc23)cc(CO)c1OCC(=O)N1CCC(Oc2cccc(C(=O)N(C)C)c2)C1` (stereo unspecified) [CDD-1714] returned a Ki of 24 nM. This counts as double-digit nanomolar.
